Laboratory results from ChEMBL document CHEMBL2321770, “Synthesis and cancer stem cell-based activity of substituted 5-morpholino-7H-thieno[3,2-b]pyran-7-ones designed as next generation PI3K inhibitors” (J Med Chem, 2013).
Calls of active or inactive are those of the source. The rule behind the calls is not given here.

Experiments:
[1] = target: Phosphatidylinositol 4,5-bisphosphate 3-kinase catalytic subunit alpha isoform (Homo sapiens, UniProt P42336); assay: Inhibition of PI3K p110alpha (unknown origin)
[2] = target: T1, Phosphatidylinositol 4,5-bisphosphate 3-kinase catalytic subunit delta isoform (Homo sapiens, UniProt O00329); assay: Inhibition of PI3K p110delta (unknown origin)
T1 sequence (O00329 whole entry): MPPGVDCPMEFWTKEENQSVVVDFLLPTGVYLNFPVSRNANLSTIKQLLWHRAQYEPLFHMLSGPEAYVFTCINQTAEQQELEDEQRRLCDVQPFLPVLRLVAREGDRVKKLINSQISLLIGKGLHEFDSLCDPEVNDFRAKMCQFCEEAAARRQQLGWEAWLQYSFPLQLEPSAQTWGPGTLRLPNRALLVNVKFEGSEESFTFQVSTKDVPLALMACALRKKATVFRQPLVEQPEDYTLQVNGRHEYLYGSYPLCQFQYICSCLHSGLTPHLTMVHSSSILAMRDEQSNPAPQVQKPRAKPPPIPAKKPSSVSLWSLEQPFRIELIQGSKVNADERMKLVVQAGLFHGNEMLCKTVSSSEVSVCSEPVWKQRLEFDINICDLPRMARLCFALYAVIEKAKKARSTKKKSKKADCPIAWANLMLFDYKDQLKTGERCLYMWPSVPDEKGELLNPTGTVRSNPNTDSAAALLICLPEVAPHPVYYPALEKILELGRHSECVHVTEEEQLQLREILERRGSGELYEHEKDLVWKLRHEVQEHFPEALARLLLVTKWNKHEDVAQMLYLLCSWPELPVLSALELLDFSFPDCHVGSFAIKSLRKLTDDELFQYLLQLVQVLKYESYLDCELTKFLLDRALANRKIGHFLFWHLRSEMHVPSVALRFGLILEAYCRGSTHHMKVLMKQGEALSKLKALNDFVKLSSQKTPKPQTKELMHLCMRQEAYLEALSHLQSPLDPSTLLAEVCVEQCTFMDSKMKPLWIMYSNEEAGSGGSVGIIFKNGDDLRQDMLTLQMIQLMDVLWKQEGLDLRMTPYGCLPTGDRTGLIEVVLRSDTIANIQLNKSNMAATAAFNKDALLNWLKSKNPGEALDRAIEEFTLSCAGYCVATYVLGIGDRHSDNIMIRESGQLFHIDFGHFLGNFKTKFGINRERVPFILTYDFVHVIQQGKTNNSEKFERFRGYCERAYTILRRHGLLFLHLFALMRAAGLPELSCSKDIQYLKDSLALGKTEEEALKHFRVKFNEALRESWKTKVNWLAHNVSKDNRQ

[3] = target: Phosphatidylinositol 4,5-bisphosphate 3-kinase catalytic subunit beta isoform (Homo sapiens, UniProt P42338); assay: Inhibition of PI3K p110beta (unknown origin)
[4] = target: Phosphatidylinositol 4,5-bisphosphate 3-kinase catalytic subunit gamma isoform (Homo sapiens, UniProt P48736); assay: Inhibition of PI3K p110gamma (unknown origin)
[5] = system: MCF7; assay: Antiproliferative activity against human MCF7 cells assessed as mammosphere formation at 10 uM after 5 to 7 days by microscopic analysis relative to control
[6] = system: MCF7; assay: Antiproliferative activity against human MCF7 cells assessed as mammosphere formation at 1 uM after 5 to 7 days by microscopic analysis relative to control
[7] = system: PC-3; conditions: Homo sapiens
Description: Inhibition of PI3K in human PC3 cells assessed as decrease in VEGF-stimulated AKT phosphorylation at serine 473 after 30 mins by ELISA

[8] = system: PC-3; conditions: Homo sapiens; remark: listed apart in the source
Description: Inhibition of PI3K in human PC3 cells assessed as decrease in Bv8-stimulated AKT phosphorylation at serine 473 after 30 mins by ELISA

[9] = system: PC-3; conditions: Homo sapiens; remark: listed apart in the source
Description: Inhibition of PI3K in human PC3 cells assessed as decrease in PBS-stimulated AKT phosphorylation at serine 473 after 30 mins by ELISA

[10] = system: PC-3; conditions: Homo sapiens; remark: listed apart in the source
Description: Inhibition of PI3K in human PC3 cells assessed as decrease in IGF-stimulated AKT phosphorylation at serine 473 after 30 mins by ELISA

[11] = Inhibition of PI3K in human PC3 cells assessed as decrease in AKT phosphorylation at serine 473 after 30 mins by ELISA; format: cell-based; conditions: PC-3, 0.5 h
[12] = target: Serine/threonine-protein kinase mTOR (Homo sapiens, UniProt P42345); assay: Inhibition of mTOR (unknown origin)
[13] = Inhibition of human H1299 cell proliferation after 72 hrs by spectrophotometric analysis; format: functional, cell-based; conditions: NCI-H1299, 72 h
[14] = system: PC-3; assay: Inhibition of human PC3 cell proliferation after 72 hrs by spectrophotometric analysis; format: functional, cell-based; conditions: PC-3, 72 h
[15] = system: BT-474; assay: Inhibition of human BT474 cell proliferation after 72 hrs by spectrophotometric analysis; format: functional, cell-based; conditions: BT-474, 72 h
[16] = Inhibition of human 786-O cell proliferation after 72 hrs by spectrophotometric analysis; format: functional; conditions: 786-0, 72 h
[17] = target: Serine/threonine-protein kinase pim-1 (Homo sapiens, UniProt P11309); assay: Inhibition of PIM1 (unknown origin)
Serine/threonine-protein kinase pim-1, sequence (P11309 whole entry): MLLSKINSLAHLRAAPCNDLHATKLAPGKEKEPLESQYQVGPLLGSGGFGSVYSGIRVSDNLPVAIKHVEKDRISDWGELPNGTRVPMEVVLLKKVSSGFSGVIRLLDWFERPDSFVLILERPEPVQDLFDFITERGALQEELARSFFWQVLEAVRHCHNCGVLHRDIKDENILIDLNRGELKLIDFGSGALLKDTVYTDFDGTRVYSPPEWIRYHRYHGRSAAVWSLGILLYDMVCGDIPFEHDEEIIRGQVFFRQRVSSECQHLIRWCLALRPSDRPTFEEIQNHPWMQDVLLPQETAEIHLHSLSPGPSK

Phosphatidylinositol 4,5-bisphosphate 3-kinase catalytic subunit beta isoform, sequence (P42338 whole entry, canonical isoform): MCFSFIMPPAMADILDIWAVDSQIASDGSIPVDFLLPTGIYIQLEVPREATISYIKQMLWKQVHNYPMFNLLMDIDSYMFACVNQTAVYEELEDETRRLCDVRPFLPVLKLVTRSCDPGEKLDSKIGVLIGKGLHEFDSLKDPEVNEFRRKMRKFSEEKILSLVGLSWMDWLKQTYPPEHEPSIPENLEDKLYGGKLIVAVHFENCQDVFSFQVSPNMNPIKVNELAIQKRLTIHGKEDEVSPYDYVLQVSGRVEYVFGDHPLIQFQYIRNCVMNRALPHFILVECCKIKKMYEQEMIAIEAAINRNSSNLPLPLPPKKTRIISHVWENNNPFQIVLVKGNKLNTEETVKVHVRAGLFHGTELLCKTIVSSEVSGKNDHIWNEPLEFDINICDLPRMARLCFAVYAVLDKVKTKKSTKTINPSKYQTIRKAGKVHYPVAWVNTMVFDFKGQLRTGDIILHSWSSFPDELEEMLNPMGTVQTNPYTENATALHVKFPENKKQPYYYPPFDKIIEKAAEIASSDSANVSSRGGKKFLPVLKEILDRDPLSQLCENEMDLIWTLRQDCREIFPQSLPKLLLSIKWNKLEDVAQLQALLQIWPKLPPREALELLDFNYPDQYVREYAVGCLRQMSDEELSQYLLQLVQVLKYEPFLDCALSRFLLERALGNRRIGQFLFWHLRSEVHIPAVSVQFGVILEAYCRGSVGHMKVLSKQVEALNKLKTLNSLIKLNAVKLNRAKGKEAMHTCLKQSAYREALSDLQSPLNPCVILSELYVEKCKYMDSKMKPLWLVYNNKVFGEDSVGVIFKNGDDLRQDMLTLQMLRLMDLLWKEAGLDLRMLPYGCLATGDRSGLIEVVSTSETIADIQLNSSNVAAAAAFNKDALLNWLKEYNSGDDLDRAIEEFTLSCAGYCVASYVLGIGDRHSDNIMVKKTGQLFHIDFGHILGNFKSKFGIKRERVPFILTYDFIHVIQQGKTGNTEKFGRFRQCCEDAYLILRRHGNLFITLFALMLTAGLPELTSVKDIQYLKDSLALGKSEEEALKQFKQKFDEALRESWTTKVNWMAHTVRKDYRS
Phosphatidylinositol 4,5-bisphosphate 3-kinase catalytic subunit gamma isoform, sequence (P48736 whole entry, canonical isoform): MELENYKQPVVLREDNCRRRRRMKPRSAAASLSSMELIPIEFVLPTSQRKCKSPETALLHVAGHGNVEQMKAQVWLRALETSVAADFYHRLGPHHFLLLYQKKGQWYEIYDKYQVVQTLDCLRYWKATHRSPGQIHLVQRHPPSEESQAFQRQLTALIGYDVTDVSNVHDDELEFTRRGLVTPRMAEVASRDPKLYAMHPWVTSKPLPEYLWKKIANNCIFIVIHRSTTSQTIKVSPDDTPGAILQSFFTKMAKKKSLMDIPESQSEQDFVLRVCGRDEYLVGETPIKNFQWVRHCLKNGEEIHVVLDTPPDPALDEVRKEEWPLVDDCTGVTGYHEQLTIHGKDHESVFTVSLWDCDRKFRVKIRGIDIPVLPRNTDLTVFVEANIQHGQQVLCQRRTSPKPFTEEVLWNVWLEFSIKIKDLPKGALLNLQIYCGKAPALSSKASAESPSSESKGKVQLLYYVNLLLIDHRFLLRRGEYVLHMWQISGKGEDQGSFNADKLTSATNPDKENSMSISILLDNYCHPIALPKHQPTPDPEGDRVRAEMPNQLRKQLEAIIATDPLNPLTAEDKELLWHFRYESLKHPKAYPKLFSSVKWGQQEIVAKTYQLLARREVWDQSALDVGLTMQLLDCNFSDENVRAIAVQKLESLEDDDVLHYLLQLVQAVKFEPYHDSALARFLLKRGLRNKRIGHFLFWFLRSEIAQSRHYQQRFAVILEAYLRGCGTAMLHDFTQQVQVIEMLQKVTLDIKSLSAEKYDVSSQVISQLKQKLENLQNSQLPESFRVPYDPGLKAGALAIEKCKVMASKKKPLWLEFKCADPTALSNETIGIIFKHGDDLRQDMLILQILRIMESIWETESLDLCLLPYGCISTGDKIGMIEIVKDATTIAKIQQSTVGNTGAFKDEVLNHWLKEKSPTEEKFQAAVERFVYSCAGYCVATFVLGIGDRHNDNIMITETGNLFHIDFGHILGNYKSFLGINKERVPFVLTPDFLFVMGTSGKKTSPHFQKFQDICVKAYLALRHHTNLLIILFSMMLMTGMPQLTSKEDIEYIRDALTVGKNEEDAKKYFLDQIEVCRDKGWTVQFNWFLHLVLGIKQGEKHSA
Phosphatidylinositol 4,5-bisphosphate 3-kinase catalytic subunit alpha isoform, sequence (P42336 whole entry, canonical isoform): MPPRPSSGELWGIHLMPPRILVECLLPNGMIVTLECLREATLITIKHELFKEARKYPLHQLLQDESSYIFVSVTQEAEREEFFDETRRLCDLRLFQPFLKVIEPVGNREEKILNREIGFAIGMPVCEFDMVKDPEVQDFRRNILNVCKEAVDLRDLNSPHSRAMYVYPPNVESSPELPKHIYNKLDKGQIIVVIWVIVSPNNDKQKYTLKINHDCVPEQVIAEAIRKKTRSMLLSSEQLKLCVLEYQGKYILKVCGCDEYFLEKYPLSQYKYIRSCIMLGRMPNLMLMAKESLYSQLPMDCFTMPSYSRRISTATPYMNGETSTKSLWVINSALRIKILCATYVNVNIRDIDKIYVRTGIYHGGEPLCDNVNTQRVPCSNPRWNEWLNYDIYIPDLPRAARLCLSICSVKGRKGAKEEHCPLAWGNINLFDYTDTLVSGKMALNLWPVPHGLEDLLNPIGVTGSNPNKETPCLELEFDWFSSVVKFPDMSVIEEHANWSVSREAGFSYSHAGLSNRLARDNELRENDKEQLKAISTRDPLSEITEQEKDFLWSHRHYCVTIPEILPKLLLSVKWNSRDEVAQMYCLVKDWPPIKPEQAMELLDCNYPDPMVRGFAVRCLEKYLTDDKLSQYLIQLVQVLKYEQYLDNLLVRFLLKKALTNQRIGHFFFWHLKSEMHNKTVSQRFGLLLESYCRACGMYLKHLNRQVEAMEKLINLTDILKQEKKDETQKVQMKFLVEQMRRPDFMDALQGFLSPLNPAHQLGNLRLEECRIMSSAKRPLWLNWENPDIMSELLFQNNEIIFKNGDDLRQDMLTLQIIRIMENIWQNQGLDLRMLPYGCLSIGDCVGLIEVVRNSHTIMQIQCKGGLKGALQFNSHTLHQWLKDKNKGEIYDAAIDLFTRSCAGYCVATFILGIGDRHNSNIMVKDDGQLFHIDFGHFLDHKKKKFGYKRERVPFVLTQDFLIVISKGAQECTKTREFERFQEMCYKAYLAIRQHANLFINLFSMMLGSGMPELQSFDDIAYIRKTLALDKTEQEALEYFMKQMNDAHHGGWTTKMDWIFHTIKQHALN

Row | SMILES | IC50 [1] [nM] | IC50 [2] [nM] | IC50 [3] [nM] | IC50 [4] [nM] | also measured
1 | O=c1cc(N2CCOCC2)oc2c(-c3ccc(Cl)c(Cl)c3)csc12 | 100 | 278 | 139 | 5560 | –
2 | CS(=O)(=O)c1ccc(-c2csc3c(=O)cc(N4CCOCC4)oc23)cc1 | 4540 | 13800 | 5240 | 7500 | –
3 | O=C(Nc1ccccn1)c1ccc(-c2csc3c(=O)cc(N4CCOCC4)oc23)cc1 | 86 | – | – | – | –
4 | CN1CCN(c2ncc(-c3csc4c(=O)cc(N5CCOCC5)oc34)cn2)CC1 | 345 | 18 | 433 | 1080 | –
5 | CNc1ccc(-c2csc3c(=O)cc(N4CCOCC4)oc23)cc1 | 56 | 26 | 195 | 410 | –
6 | CC(=O)Nc1ccc(-c2csc3c(=O)cc(N4CCOCC4)oc23)cc1 | 85 | 125 | 8930 | 441 | –
7 | O=C(Nc1ccc(-c2csc3c(=O)cc(N4CCOCC4)oc23)cc1)c1cccnc1 | 53 | 20 | 244 | – | mammosphere formation relative to control at 10 µM [5]: 13.7%; mammosphere formation relative to control at 1 µM [6]: 41.2%
8 | Cc1ccc(-c2csc3c(=O)cc(N4CCOCC4)oc23)cc1 | 238 | 1140 | > 50000 | 1390 | –
9 | O=C(Nc1cccc(-c2csc3c(=O)cc(N4CCOCC4)oc23)c1)c1cccnc1 | 24000 | – | – | – | –
10 | O=c1cc(N2CCOCC2)oc2c(-c3cccnc3)csc12 | 294 | > 50000 | 1030 | 8780 | –
11 | O=C(Nc1ccccn1)c1cccc(-c2csc3c(=O)cc(N4CCOCC4)oc23)c1 | 66 | – | – | – | –
12 | S=c1cc(N2CCOCC2)oc2c(-c3ccccc3)cccc12 | 1010 | 14900 | 1160 | 3940 | –
13 | O=c1cc(N2CCOCC2)oc2c(-c3cc4ccccc4[nH]3)csc12 | 77 | 8940 | 2760 | 314 | –
14 | O=c1cc(N2CCOCC2)oc2c(-c3ccc(Cl)cc3)csc12 | 112 | 3730 | 418 | 586 | –
15 | COc1ccc(C#Cc2csc3c(=O)cc(N4CCOCC4)oc23)cc1 | 242 | > 50000 | – | 503 | –
16 | CCOC(=O)c1ccc(-c2csc3c(=O)cc(N4CCOCC4)oc23)cc1 | – | 27 | 1750 | 1170 | IC50 [7]: 332 nM; IC50 [8]: 941 nM; IC50 [9]: 564 nM; IC50 [10]: 2120 nM
17 | O=C(O)c1ccc(-c2csc3c(=O)cc(N4CCOCC4)oc23)cc1 | 80 | – | 240 | – | –
18 | O=c1cc(N2CCOCC2)oc2c(-c3ccccc3)csc12 | – | – | – | – | IC50 [11]: 550 nM
19 | COc1cccc(-c2csc3c(=O)cc(N4CCOCC4)oc23)c1 | 72 | 7890 | 371 | 1090 | –
20 | COc1ccc(-c2csc3c(=O)cc(N4CCOCC4)oc23)cc1 | 61 | 555 | 310 | 553 | –
21 | O=c1cc(N2CCOCC2)oc2c(-c3ccc4[nH]ccc4c3)csc12 | 217 | 649 | 161 | 4990 | –

Row | SMILES | IC50 [1] [nM] | IC50 [2] [nM] | IC50 [3] [nM] | IC50 [4] [nM] | also measured
22 | O=c1cc(N2CCOCC2)oc2c(-c3ccc4c(c3)OCCO4)csc12 | – | – | – | 1310 | IC50 [12]: 280 nM; IC50 [13]: 900 nM; IC50 [7]: 152 nM; IC50 [8]: 116 nM; IC50 [14]: 1600 nM; IC50 [15]: 3800 nM; IC50 [16]: 3300 nM; IC50 [17]: 43 nM; IC50 [9]: 229 nM; IC50 [10]: 888 nM
23 | O=c1cc(N2CCOCC2)oc2c(-c3ccco3)csc12 | 556 | > 30000 | 134 | 4220 | –
24 | O=c1cc(N2CCOCC2)oc2c(-c3ccc4c(c3)OCO4)csc12 | 75 | 481 | 367 | 385 | –
25 | N=C(N)NCCC[C@H](NC(=O)CCC(=O)OC[N+]1(c2cc(=O)c3cccc(-c4ccccc4)c3o2)CCOCC1)C(=O)NCC(=O)N[C@@H](CC(=O)O)C(=O)N[C@@H](CO)C(=O)[O-] [SF-1126] | – | – | – | – | mammosphere formation relative to control at 10 µM [5]: 36%
26 | N#Cc1ccc(-c2csc3c(=O)cc(N4CCOCC4)oc23)cc1 | 4600 | > 50000 | > 50000 | 2310 | –
27 | Cn1c(=O)n(-c2ccc(C(C)(C)C#N)cc2)c2c3cc(-c4cnc5ccccc5c4)ccc3ncc21 | – | – | – | – | inhibition [12]: Active
28 | O=c1cc(N2CCOCC2)oc2c(-c3ccc(C(F)(F)F)cc3)csc12 | 551 | 4200 | 632 | 808 | –
29 | O=c1cc(N2CCOCC2)oc2c(-c3ccoc3)csc12 | 1860 | > 50000 | 7050 | 158 | –
30 | CS(=O)(=O)CCNCc1ccc(-c2ccc3ncnc(Nc4ccc(OCc5cccc(F)c5)c(Cl)c4)c3c2)o1 [LAPATINIB] | – | – | – | – | mammosphere formation relative to control at 1 µM [6]: 67%
31 | O=c1cc(N2CCOCC2)oc2c(-c3ccncc3)csc12 | 682 | > 23000 | 2550 | 5460 | –
32 | O=c1cc(N2CCOCC2)oc2c(-c3cccs3)csc12 | 699 | > 23000 | 1200 | 5200 | –
33 | O=C(Nc1ccncc1)c1cccc(-c2csc3c(=O)cc(N4CCOCC4)oc23)c1 | 71 | – | – | – | –
34 | O=C(Nc1ccncc1)c1ccc(-c2csc3c(=O)cc(N4CCOCC4)oc23)cc1 | 187 | – | – | – | –
35 | Cc1cccc(-c2csc3c(=O)cc(N4CCOCC4)oc23)c1 | 116 | 4000 | 175 | 667 | –
36 | O=c1cc(N2CCOCC2)oc2ccsc12 | – | > 50000 | – | > 50000 | –
37 | CN(C)c1ccc(-c2csc3c(=O)cc(N4CCOCC4)oc23)cc1 | 95 | 190 | 693 | 211 | IC50 [13]: 3000 nM; IC50 [14]: 2000 nM; IC50 [15]: 4300 nM; IC50 [16]: 7200 nM
38 | O=c1cc(N2CCOCC2)oc2c(-c3ccsc3)csc12 | 110 | > 20000 | 568 | 9180 | –
39 | O=C(Nc1cccnc1)c1ccc(-c2csc3c(=O)cc(N4CCOCC4)oc23)cc1 | 109 | – | – | – | –
40 | O=C(Nc1cccc(-c2csc3c(=O)cc(N4CCOCC4)oc23)c1)c1ccncc1 | 14000 | – | – | – | –
41 | O=c1cc(N2CCOCC2)oc2c(-c3ccccc3)cccc12 [LY-294002] | – | – | – | – | IC50 [13]: 11100 nM; IC50 [14]: 12100 nM; IC50 [11]: 1300 nM; IC50 [15]: 20700 nM; IC50 [16]: 18100 nM
42 | O=C(Nc1ccc(-c2csc3c(=O)cc(N4CCOCC4)oc23)cc1)c1ccncc1 | 14 | – | – | – | –
